How the values were obtained:
KBM-5 cells = experiment: Live and Dead (calcein AM) assay, TNF plus guggulsterone; format: cell-based, human; conditions: TNF in combination with guggulsterone, 24 hours
Text: Live and Dead Assay: To measure apoptosis, the Live and Dead assay (Molecular Probes) was used, which determines intracellular esterase activity and plasma membrane integrity. This assay employs calcein, a polyanionic dye, which is retained within the live cells and provides green fluorescence. It also employs the ethidium […] dye (red fluorescence), which can enter the cells only through damaged membranes and bind to nucleic acids but is excluded by the intact plasma membrane of live cells. Briefly, 1×10^5 cells are incubated with 10 μM guggulsterone for 24 h and then treated with 1 nM TNF for 16 hours at 37° C. Cells are stained with the Live and Dead reagent (5 μM ethidium homodimer, 5 μM calcein-AM) and then incubated at 37° C. for 30 min. Cells were analyzed under a fluorescence microscope (Labophot-2).

Akt = experiment: TNF-induced Akt activation, Western blot with phospho-specific anti-Akt; format: cell-based; conditions: pretreatment with guggulsterone, TNF (1 nM)
Text: Guggulsterone Suppressed TNF-induced Activation of Akt: The results till now indicate that guggulsterone inhibits TNF-induced NF-κB activation through inhibition of IKK activation. It is possible that this inhibition is due to inhibition of an upstream kinase. Previous studies have reported that Akt can activate IKK. Thus it is possible that guggulsterone suppresses TNF-induced Akt activation. To determine the effect of guggulsterone on the activation of Akt induced by TNF, the cells were treated with guggulsterone, and then exposed to TNF (1 nM) for different times. Thereafter whole-cell extracts were prepared and Western blot analysis using phospho-specific anti-Akt antibody was performed.

U937 cells = experiment: Thymidine incorporation assay; format: cell-based, human; conditions: 72 h
Procedure: Thymidine incorporation assay. The antiproliferative effects of guggulsterone were also monitored by the thymidine incorporation method. For this, 5000 cells in 100 μL medium were cultured in triplicate in 96-well plates in the presence or absence of guggulsterone for 72 hours. At 6 hours before the completion of experiment, cells were pulsed with 0.5 μCi (0.0185 MBq) ^3H-thymidine, and the uptake of ^3H-thymidine was monitored by means of a Matrix-9600 β-counter (Packard Instruments, Downers Grove, Ill.).

bile salt export pump = conditions: Cui et al., 2003; cited from earlier work
IKK [1] = experiment: RANKL-induced IKK activity, IKK assay; format: cell-based, mouse; conditions: RAW 264.7
[2] = test system: COX-2, MMP-9, VEGF, cyclin D1, c-myc, cIAP1, xIAP, Bfl-1, BCL-2, TRAF1, cFLIP, survivin; experiment: TNF-induced expression of NF-κB regulated gene products, Western blot; format: cell-based, human; conditions: H1299, 50 μM, 0.1 nM TNF
Procedure: (§1) Western Blot Analysis: To determine the effect of guggulsterone on TNF-dependent IκBα phosphorylation, IκBα degradation, p65 translocation and p65 phosphorylation, cytoplasmic extracts were prepared as previously described (Majumdar et al., 2001) from H1299 (2×10^6/ml) pretreated with 50 μM guggulsterone for 4 h and then exposed to 0.1 nM TNF for various times. Thirty micrograms of cytoplasmic protein was resolved on 10% SDS-PAGE gel, transferred to a nitrocellulose membrane, blocked with 5% non-fat milk, and probed with specific antibody against IκBα, posphorylated IκBα, p65 and phosphorylated p65. To determine the expression of cyclin D1, COX-2, MMP-9, clAP-1, xlAP, TRAF1, Bcl-2, Bfl-1, cFLIP, and survivin, whole-cell extracts were prepared from treated cells (2×10^6 cells in 2 ml medium), 30-50 μg protein was resolved on SDS-PAGE gel and probed by Western blot with specific antibodies as per manufacturer's recommended protocol. The blots were washed, exposed to HRP-conjugated secondary antibodies for 1 hour, and finally detected by ECL reagent (Amersham Pharmacia Biotech.). The bands were quantitated using a Personal Densitometer Scan v1.30 using IMAGEQUANT™ software version 3.3 (Molecular Dynamics).

NF-κB = experiment: Constitutively active NF-κB by EMSA in U266 and MDA 1986 tumor cells; format: cell-based, human; conditions: 50 μM, 4 hours
Procedure: NF-κB Activation: To determine NF-κB activation, EMSA was carried out as previously described (Chaturvedi et al., 2000). Briefly, nuclear extracts prepared from cells (2×10^6/ml) treated with TNF were incubated with ^32P-end-labeled 45-mer double-stranded NF-κB oligonucleotide (8 μg of protein with […] of DNA) from the human immunodeficiency virus long terminal repeat, 5′-[…] GGCGTGG-3′ (SEQ ID NO:1) (boldface indicates NF-κB binding sites), for 15 min at 37° C. The DNA-protein complex formed was separated from free oligonucleotide on 6.6% native polyacrylamide gels. A double-stranded mutated oligonucleotide, 5′-[…]-3′ (SEQ ID NO:2), was used to examine the specificity of binding of NF-κB to the DNA. The specificity of binding was also examined by competition with the unlabeled oligonucleotide. For supershift assays, nuclear extracts prepared from TNF-treated cells were incubated with antibodies against either the p50 or the p65 subunit of NF-κB for 30 min at room temperature before the complex was analyzed by EMSA. The dried gels were visualized, and radioactive bands were quantitated using a PHOSPHORIMAGER™ (Molecular Dynamics, Sunnyvale, Calif.) using IMAGEQUANT™ software.

IκBα = experiment: TNF-dependent IκBα degradation and phosphorylation, Western blot; format: cell-based, human; conditions: H1299; 50 μM, 4 hours, 0.1 nM TNF
Procedure: as §1

IKK [3] = experiment: Direct inhibition of immunoprecipitated IKK, kinase assay; format: biochemical, human; conditions: 50 μM; immune complex treated 30 min at 30° C.
Procedure: IKK Assay: To determine the effect of guggulsterone on TNF-induced IKK activation, IKK was analyzed by a method essentially as described previously (Shishodia et al., 2003). Briefly, IKK complex was precipitated from whole-cell extracts with antibody to IKKα and IKKβ, assayed in kinase assay using GST-IκBα (1-54) as a substrate, and resolved on 10% polyacrylamide gel; the radioactive bands were visualized using a PHOSPHORIMAGER™. To determine the total amounts of IKKα and IKKβ in each sample, 30 μg of the whole-cell extract protein was resolved on a 7.5% polyacrylamide gel and analyzed by Western blot using antibody against IKKα and IKKβ.

Which “TNF-induced apoptosis, calcein AM-based live/dead assay” value (KBM-5 cells) does the source give for `CC=C1C(=O)C[C@H]2[C@@H]3CCC4=CC(=O)CC[C@]4(C)[C@H]3CC[C@]12C` [guggulsterone, 4,17(20)-pregnadiene-3,16-dione] here?
The value was “TNF-induced apoptosis was significantly enhanced”.

And the “TNF-induced Akt activation” value (Akt)?
Its value is “completely suppressed the activation”.

And the “proliferation of U937 cells, 3H-thymidine incorporation” value (U937 cells)?
Its value is “inhibits proliferation in U937 cells”.

And the “transcription of the bile salt export pump” value (bile salt export pump)?
The value was “enhances transcription of the bile salt export pump”.

What about the “RANKL-induced IKK activity (phosphorylation of GST-IκBα)” value (IKK [1]; 50 μM, 4 h pre-incubation, 10 nM RANKL) of the same molecule?
The value was “could not phosphorylate GST-IκBα upon RANKL treatment”.

And the “expression of IKK-α and IKK-β” value (IKK [1]; Western blot)?
The value was “did not alter the expression of IKK-α and IKK-β”.

What about the “TNF-induced COX-2, MMP-9 and VEGF expression” value ([2]; 4 h) of the same molecule?
Its value is “abolished the TNF-induced expression of these gene products”.

And the “TNF-induced cyclin D1 and c-myc expression” value ([2]; 4 hours)?
Its value is “abolished the expression of these gene products”.

What about the “TNF-induced expression of cIAP1, xIAP, Bfl-1, BCL-2, TRAF1, cFLIP and survivin” value ([2]; 4 hours) of the same molecule?
The value was “this expression was inhibited”.

What about the “constitutively active NF-κB in U266 and MDA 1986 cells” value (NF-κB) of the same molecule?
Its value is “completely inhibited this constitutively active NF-κB”.

And the “TNF-induced IκBα degradation” value (IκBα)?
Its value is “TNF had no effect on IκBα degradation”.

And the “TNF-induced IκBα phosphorylation” value (IκBα)?
The value was “almost completely suppressed IκBα phosphorylation”.

What about the “phosphorylation of GST IκBα by immunoprecipitated IKK (direct inhibition)” value (IKK [3]) of the same molecule?
Its value is “inhibited the phosphorylation of GST IκBα”.

Source: patent US20060019907A1, “Guggulsterone: an inhibitor of nuclear factor - kappaB and IkappaBalpha kinase activation and uses thereof” (Research Development Foundation, priority 2004, published 2006)
